{
  "source": "patent US20040028760A1",
  "about": "“Method of treating inflammation and inflammation-related pain” (Michigan State University, priority 2002, published 2004)",
  "key": {"[1]": {"target": "T1, prostaglandin H endoperoxide synthase-I (COX-I) (Ovis aries, UniProt P05979)", "T1 construct": "was prepared from ram seminal vesicles; from tissue; host or cells: ram seminal vesicles", "T1 sequence (P05979 25-600)": "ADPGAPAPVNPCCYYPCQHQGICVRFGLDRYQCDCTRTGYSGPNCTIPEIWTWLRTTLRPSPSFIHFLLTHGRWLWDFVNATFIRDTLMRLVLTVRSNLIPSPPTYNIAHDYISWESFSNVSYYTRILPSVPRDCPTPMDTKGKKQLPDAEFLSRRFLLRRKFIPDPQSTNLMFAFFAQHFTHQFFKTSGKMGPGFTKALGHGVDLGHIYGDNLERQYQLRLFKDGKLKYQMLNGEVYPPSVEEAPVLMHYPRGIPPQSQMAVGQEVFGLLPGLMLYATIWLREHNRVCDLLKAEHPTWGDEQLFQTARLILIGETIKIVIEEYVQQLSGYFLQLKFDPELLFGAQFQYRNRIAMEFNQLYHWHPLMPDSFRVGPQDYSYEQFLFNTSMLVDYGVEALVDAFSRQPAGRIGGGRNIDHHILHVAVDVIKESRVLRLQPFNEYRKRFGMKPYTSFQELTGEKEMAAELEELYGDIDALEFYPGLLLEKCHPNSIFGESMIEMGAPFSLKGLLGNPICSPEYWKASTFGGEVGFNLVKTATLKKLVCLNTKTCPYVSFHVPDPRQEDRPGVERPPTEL", "assay": "Cyclooxygenase inhibitory assay (initial rate of O2 uptake), COX-I", "type": "biochemical, ram", "conditions": "for inhibition at 100 µg/mL: read-out: COX-I inhibitory activity", "protocol": "(§1) Prostaglandin H synthase isozymes-I (PGHS-I or COX-I) was prepared from ram seminal vesicles. PGHS-II or COX-II enzyme for the assay was prepared from lysates of cloned insect cell with human PGHS-II enzyme. Each assay mixture contained 600 μL of 0.1 M Tris buffer (pH 7), 1 mM phenol, 17 μg hemoglobin and 10 μL of COX-I or 20-30 μL of COX-II enzymes. Crude extracts or pure compounds were preincubated with 25-100 μg mL^−1 in DMSO for 5-minutes with COX-I or COX-II enzymes in the assay chamber at 37° C. […] Instantaneous inhibition of the enzyme was determined by monitoring the initial rate of O2 uptake using an O2 electrode."}, "[2]": {"target": "T2, human PGHS-II (COX-II) enzyme (Homo sapiens, UniProt P35354)", "T2 construct": "made in house; host or cells: insect cells (lysates)", "T2 sequence (P35354 18-604)": "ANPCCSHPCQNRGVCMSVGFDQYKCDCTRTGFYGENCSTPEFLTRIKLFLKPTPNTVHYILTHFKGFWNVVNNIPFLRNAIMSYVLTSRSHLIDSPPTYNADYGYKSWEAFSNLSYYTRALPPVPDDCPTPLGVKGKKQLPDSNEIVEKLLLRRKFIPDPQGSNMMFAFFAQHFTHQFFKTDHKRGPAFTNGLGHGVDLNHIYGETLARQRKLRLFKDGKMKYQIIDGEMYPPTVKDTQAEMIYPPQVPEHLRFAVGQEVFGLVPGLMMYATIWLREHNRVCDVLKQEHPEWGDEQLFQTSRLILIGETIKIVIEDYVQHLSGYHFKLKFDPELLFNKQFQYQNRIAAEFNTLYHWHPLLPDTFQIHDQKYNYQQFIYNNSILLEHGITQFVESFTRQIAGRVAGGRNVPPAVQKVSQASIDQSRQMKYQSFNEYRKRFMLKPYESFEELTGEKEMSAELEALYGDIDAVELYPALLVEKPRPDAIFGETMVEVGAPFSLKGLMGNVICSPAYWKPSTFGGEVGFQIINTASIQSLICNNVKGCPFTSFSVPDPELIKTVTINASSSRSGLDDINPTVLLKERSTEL", "assay": "Cyclooxygenase inhibitory assay (initial rate of O2 uptake), COX-II", "type": "biochemical", "protocol": "as §1"}, "cyclooxygenase": {"target": "T3, cyclooxygenase", "T3 construct": "\"prepared from ram seminal vesicles\"", "type": "biochemical", "protocol": "as §1"}, "COX-I": {"test_system": "COX-I", "conditions": "less than 500 μM; cited from earlier work"}, "COX-II": {"target": "T4, COX-II (Ovis aries, UniProt P79208)", "T4 sequence (P79208 17-603)": "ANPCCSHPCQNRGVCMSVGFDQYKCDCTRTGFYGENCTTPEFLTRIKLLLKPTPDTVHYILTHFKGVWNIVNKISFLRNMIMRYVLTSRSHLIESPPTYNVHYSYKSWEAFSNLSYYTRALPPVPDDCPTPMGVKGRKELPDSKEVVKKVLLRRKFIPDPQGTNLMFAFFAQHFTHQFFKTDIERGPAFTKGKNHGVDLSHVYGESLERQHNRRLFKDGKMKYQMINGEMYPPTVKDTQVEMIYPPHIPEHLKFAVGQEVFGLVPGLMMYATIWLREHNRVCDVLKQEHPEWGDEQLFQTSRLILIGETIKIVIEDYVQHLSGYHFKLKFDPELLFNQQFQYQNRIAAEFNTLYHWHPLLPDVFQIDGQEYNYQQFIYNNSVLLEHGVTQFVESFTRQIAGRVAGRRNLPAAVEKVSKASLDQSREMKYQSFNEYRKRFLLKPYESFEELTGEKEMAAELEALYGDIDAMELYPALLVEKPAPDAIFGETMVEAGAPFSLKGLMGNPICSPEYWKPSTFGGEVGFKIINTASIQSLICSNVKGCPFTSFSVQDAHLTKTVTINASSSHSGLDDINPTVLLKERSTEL", "conditions": "less than 500 μM; cited from earlier work"}, "[3]": {"conditions": "100 μg mL^−1, compared to solvent control"}},
  "note": "“Also recorded” adds a separate entry of the source. Like-named read-outs stand apart in the source and are kept apart here.",
  "data": [
    {"molecule": "CC(C)=CCC/C(C)=C/CO", "note": "[Compound 4, geraniol]", "values": [
      {"measurement": "COX-I inhibition (result in words)", "setting": "[1]; 100 μg mL^−1", "value": "not active; also recorded: did not inhibit"},
      {"measurement": "inhibition at 100 µg/mL", "setting": "[1]; 100 μg mL^−1", "value": 3.15, "unit": "%"},
      {"measurement": "COX-II inhibition (result in words)", "setting": "[2]; 100 μg mL^−1", "value": "not active; also recorded: did not inhibit"},
      {"measurement": "inhibition at 100 µg/mL", "setting": "[2]; 100 μg mL^−1", "value": 0, "unit": "%"}
    ]},
    {"molecule": "COc1cc(OC)c(C(=O)O)cc1OC", "note": "[2,4,5-trimethoxybenzoicacid, reference compound]", "values": [
      {"measurement": "COX-I inhibition (result in words)", "setting": "[1]; 100 μg mL^−1", "value": "didn't exhibit any inhibition"},
      {"measurement": "COX-II inhibition (result in words)", "setting": "[2]; 100 μg mL^−1", "value": "didn't exhibit any inhibition"}
    ]},
    {"molecule": "COc1ccc2cc([C@H](C)C(=O)O)ccc2c1", "note": "[Naproxen, reference compound]", "values": [
      {"measurement": "COX-II/COX-I ratio", "setting": "[2]", "value": 0.92},
      {"measurement": "IC50 values", "setting": "cyclooxygenase; concentration at which the reference drug was assayed, isozyme not stated", "value": 2.06, "unit": "µg/mL"}
    ]},
    {"molecule": "COc1cc(OC)c(OC)cc1C=O", "note": "[Compound 1, 2,4,5-trimethoxybenzaldehyde]", "values": [
      {"measurement": "inhibition at 100 µg/mL", "setting": "[1]", "value": 3.32, "unit": "%"},
      {"measurement": "inhibition at 25 µg/mL", "setting": "[2]; 25 μg mL^−1", "value": "> 30", "unit": "%"},
      {"measurement": "inhibition at 100 µg/mL", "setting": "[2]; 100 μg mL^−1", "value": 52.7, "unit": "%"},
      {"measurement": "selectivity towards COX-II enzyme inhibition (in words)", "setting": "[2]; 100 μg mL^−1, COX-II versus COX-I", "value": "selectivity towards COX-II enzyme inhibition; also recorded: selective inhibition of COX-II enzyme"},
      {"measurement": "COX-II/COX-I ratio", "setting": "[2]; [3]", "value": 17.68}
    ]},
    {"molecule": "CS(=O)(=O)c1ccc(C2=C(c3ccccc3)C(=O)OC2)cc1", "note": "[Vioxx, reference compound]", "values": [
      {"measurement": "COX-II/COX-I ratio", "setting": "[2]", "value": 75}
    ]},
    {"molecule": "CCCCCCCC/C=C\\CCCCCCCC(=O)O", "note": "[Compound 2, oleic acid]", "values": [
      {"measurement": "inhibition at 100 µg/mL", "setting": "[1]; 100 μg mL^−1", "value": 45.3, "unit": "%"},
      {"measurement": "inhibition at 100 µg/mL", "setting": "[2]; 100 μg mL^−1", "value": 68.4, "unit": "%"},
      {"measurement": "COX-II/COX-I ratio", "setting": "[2]; [3]", "value": 1.51},
      {"measurement": "COX-I inhibition (in words)", "setting": "COX-I", "value": "not COX-I or COX-II inhibitory"},
      {"measurement": "COX-II inhibition (in words)", "setting": "COX-II", "value": "not COX-I or COX-II inhibitory"}
    ]},
    {"molecule": "CC(C)Cc1ccc(C(C)C(=O)O)cc1", "note": "(stereo not drawn) [Ibuprofen]", "values": [
      {"measurement": "IC50 values", "setting": "cyclooxygenase", "value": 2.52, "unit": "µg/mL"}
    ]},
    {"molecule": "C/C=C/c1cc(OC)c(OC)cc1OC", "note": "[Compound 3, trans-asarone]", "values": [
      {"measurement": "COX-I inhibitory activity", "setting": "[1]; 100 μg mL^−1", "value": 46.15, "unit": "%"},
      {"measurement": "COX-II inhibitory activity", "setting": "[2]; 100 μg mL^−1", "value": 64.39, "unit": "%"},
      {"measurement": "COX-II/COX-I ratio", "setting": "[2]; [3]", "value": 1.4}
    ]},
    {"molecule": "COc1cc(OC)c(OC)cc1C=O", "note": "[Synthetic 2,4,5-trimethoxybenzaldehyde, 2,4,5-trimethoxybenzaldehyde, reference compound]", "values": [
      {"measurement": "COX-II inhibition of commercial synthetic sample versus natural product (in words)", "setting": "[2]; 25-100 μg mL^−1", "value": "slightly lower COX-II activity than natural form"}
    ]}
  ]
}
